The source made the active and inactive calls. The rule behind the calls is not given here.
Tests used:
[1] = biological target: Histone-lysine N-methyltransferase EZH2 (Mus musculus) (UniProt Q61188); assay: Inhibition of EZH2 in ICR mouse oocyte assessed as EED protein level at 1 uM by Western blot analysis; assay type: cell-based
[2] = system: Oocyte; assay: Effect on ICR mouse oocyte meiotic maturation assessed as PB1 extrusions at 1 uM by immunofluorescence analysis; assay type: functional, cell-based
[3] = system: Oocyte; assay: Effect on EZH2 protein expression in ICR mouse oocyte at 1 uM for 14 hrs by Western blot analysis; assay type: functional, cell-based
[4] = biological target: Histone-lysine N-methyltransferase EZH2 (Mus musculus) (UniProt Q61188); assay: Inhibition of EZH2 methyltransferase activity in ICR mouse oocyte assessed as effect on H3K9me2 level at 1 uM by Immunofluorescence analysis; assay type: cell-based
[5] = biological target: Histone-lysine N-methyltransferase EZH2 (Mus musculus) (UniProt Q61188); assay: Inhibition of EZH2 in ICR mouse oocyte assessed as effect on H3 level at 1 uM by Immunofluorescence analysis; assay type: cell-based
[6] = biological target: Histone-lysine N-methyltransferase EZH2 (Mus musculus) (UniProt Q61188); assay: Inhibition of EZH2 in ICR mouse oocyte assessed as SUZ12 protein level at 1 uM by Western blot analysis; assay type: cell-based
[7] = system: Oocyte; assay: Effect on ICR mouse oocyte meiotic maturation assessed as abnormal polar bodies extrusions at 1 uM after 14 hrs by immunofluorescence analysis; assay type: functional, cell-based
[8] = biological target: Histone-lysine N-methyltransferase EZH2 (Mus musculus) (UniProt Q61188); assay: Inhibition of EZH2 methyltransferase activity in ICR mouse oocyte assessed as decrease in H3K27 trimethylation level at 1 uM by Immunofluorescence analysis; assay type: cell-based
[9] = biological target: Histone-lysine N-methyltransferase EZH2 (Mus musculus) (UniProt Q61188); assay: Inhibition of EZH2 in ICR mouse oocyte assessed as EED protein level at 5 uM by Western blot analysis; assay type: cell-based
[10] = biological target: Histone-lysine N-methyltransferase EZH2 (Mus musculus) (UniProt Q61188); assay: Inhibition of EZH2 in ICR mouse oocyte assessed as decrease in H3K27 trimethylation level at 5 uM by Immunofluorescence analysis; assay type: cell-based
[11] = biological target: Histone-lysine N-methyltransferase EZH2 (Mus musculus) (UniProt Q61188); assay: Inhibition of EZH2 methyltransferase activity in ICR mouse oocyte assessed as decrease in H3K9me2 level at 5 uM by Immunofluorescence analysis; assay type: cell-based
[12] = system: Oocyte; assay: Effect on ICR mouse oocyte meiotic maturation assessed as PB1 extrusions at 5 uM by immunofluorescence analysis; assay type: functional, cell-based
[13] = system: Oocyte; assay: Effect on EZH2 protein expression in ICR mouse oocyte at 5 uM for 14 hrs by Western blot analysis; assay type: functional, cell-based
[14] = biological target: Histone-lysine N-methyltransferase EZH2 (Mus musculus) (UniProt Q61188); assay: Inhibition of EZH2 in ICR mouse oocyte assessed as effect on H3 level at 5 uM by Immunofluorescence analysis; assay type: cell-based
[15] = biological target: Histone-lysine N-methyltransferase EZH2 (Mus musculus) (UniProt Q61188); assay: Inhibition of EZH2 in ICR mouse oocyte assessed as SUZ12 protein level at 5 uM by Western blot analysis; assay type: cell-based

Histone-lysine N-methyltransferase EZH2 (Mus musculus), sequence (Q61188 whole entry): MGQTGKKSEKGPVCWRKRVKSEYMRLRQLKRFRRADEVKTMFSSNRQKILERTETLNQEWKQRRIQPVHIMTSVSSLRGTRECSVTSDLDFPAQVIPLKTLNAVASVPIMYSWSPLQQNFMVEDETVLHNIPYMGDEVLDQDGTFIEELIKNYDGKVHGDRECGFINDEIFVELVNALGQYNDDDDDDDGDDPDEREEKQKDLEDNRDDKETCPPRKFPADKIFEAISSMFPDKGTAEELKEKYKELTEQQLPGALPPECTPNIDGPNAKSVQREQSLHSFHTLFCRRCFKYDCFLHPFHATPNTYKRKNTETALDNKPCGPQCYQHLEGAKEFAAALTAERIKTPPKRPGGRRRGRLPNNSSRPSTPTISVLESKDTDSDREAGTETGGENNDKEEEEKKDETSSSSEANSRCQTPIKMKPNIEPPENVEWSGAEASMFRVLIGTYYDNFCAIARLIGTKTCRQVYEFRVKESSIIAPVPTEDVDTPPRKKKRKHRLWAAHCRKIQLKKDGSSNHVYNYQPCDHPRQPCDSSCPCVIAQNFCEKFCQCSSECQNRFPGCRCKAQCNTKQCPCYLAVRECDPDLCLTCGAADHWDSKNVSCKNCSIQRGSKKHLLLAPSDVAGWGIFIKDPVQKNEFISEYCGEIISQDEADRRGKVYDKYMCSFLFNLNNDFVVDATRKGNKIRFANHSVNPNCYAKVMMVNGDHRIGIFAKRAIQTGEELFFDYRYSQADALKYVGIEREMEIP

inhibition [1]	inhibition [4]	inhibition [5]	inhibition [6]	inhibition [8]	inhibition [9]	inhibition [10]	inhibition [11]	inhibition [14]	inhibition [15]	SMILES	Activity [2]	Activity [3]	Activity [7]	Activity [12]	Activity [13]
inactive	inactive	inactive	inactive	Active	–	–	–	–	–	CCCc1cc(C)[nH]c(=O)c1CNC(=O)c1cc(-c2ccnc(N3CCN(C)CC3)c2)cc2c1cnn2C(C)C	inactive	inactive	Active	–	–
–	–	–	–	–	inactive	Active	Active	inactive	inactive	Nc1nccc2c1ncn2[C@@H]1C=C(CO)[C@@H](O)[C@H]1O	–	–	–	inactive	inactive

Source: ChEMBL document CHEMBL5674871, “EZH2 is required for mouse oocyte meiotic maturation by interacting with and stabilizing spindle assembly checkpoint protein BubRI” (Nucleic Acids Res, 2016)
